This is an account of results in patent publication US5780441A, “Sphingoglycolipid compounds and therapeutic uses thereof” (Kirin Beer Kabushiki Kaisha, priority 1993, dated 1998).

One assay concerns lethally irradiated mice. Nature of the assay: Radioprotective effect: life-span prolongation of lethally irradiated mice. Type of assay: in vivo, mouse (BDF1 female). As to conditions: 0.1 mg/kg i.v. days 0, 4, 8, 9 Gy X-ray, groups of 10. The procedure: Life-span-prolonging effects of the present compounds on lethally irradiated mice.
Experiment was performed with BDF1 female mice (6 weeks old) purchased from NIPPON SLC K.K., which were divided into groups consisting of 10 animals. Mice were irradiated generally with 9 Gy of X-ray with an X-ray generating apparatus, Hitachi, MBR-1520R (radiation day: day 0). Samples at a dose of 0.1 mg/kg were administered into tail vein on days 0, 4 and 8 in order to observe the mortality of the animals for 40 days.
In the table, two experiments are separated by the broken line.

In assay [1] the test system is mixed lymphocyte culture reaction (spleen cells of C57BL/6 and BALB/C mice). Nature of the assay: Mixed lymphocyte culture reaction (MLR). Type of assay: cell-based, mouse (C57BL/6 stimulator, BALB/C responder). As to conditions: 42 hours; for activity at 1 µg/mL / activity at 0.1 µg/mL: Mus musculus, Lymphocyte, read-out: MLR activating rate (%); for MLR activating rate (%): 2520 min. The procedure: ii) Mixed lymphocyte culture reaction (MLR) of the compounds of the present invention
Spleen cells were prepared from C57BL/6 mice and treated with 50 μg/ml of mitomycin C for 30 minutes. The treated cells were used as stimulator cells, and the spleen cells of BALB/C mice as responder cells. 2×10^6 cells/ml of the both spleen cells were suspended in 10% FCS RPMI1640 as a culture medium. The above-described cells (50 μl/well) and a sample (10 μl/well) were added into wells of a round-bottomed 96 well plate, and cultured under the condition of 5% CO2 at 37° C. for 42 hours. 0.5 μCi/well of ^3 H-thymidine (^3 H-TdR) was added. After 8 hours, the cells were harvested, and the amount of uptaken ^3 H-TdR was measured by a liquid scintillation counter to calculate the ratio (%) of the uptake of ^3 H-TdR in the sample group to that in the vehicle group as the MLR activating rate.

The next assay concerns mouse splenic lymphocyte. Briefly: In vitro mouse splenic lymphocyte-proliferation-stimulating effect (3H-TdR uptake). Type of assay: cell-based, mouse (BDF1 female). As to conditions: 2 days; for activity at 1 µg/mL / activity at 0.1 µg/mL / activity at 0.01 µg/mL / activity at 0.001 µg/mL: Mus musculus, Splenic lymphocyte, 48 h, read-out: Uptake of 3H-TdR (% of control), splenic lymphocytes; for activity at 0.1 µg/mL: 10^-1 μg/ml; for activity at 0.01 µg/mL: 10^-2 μg/ml; for Uptake of 3H-TdR (% of control), splenic lymphocytes: 2880 min. The procedure:
i) In vitro mouse splenic lymphocyte growth promoting effects of the present compounds
Experiment was performed with BDF1 female mice (6 weeks old) purchased from NIPPON SLC K.K. Spleens were removed from mice, and spleen cells were brayed with slide glasses and hemolized with NH4 Cl. 2×10^6cells/ml of the spleen cells which had been hemolized were suspended in 10% FCS RPMI 1640. The cell suspension (100 μl/well) and a vehicle or sample (10 μl/well) which was prepared so as to have a final level shown in Table 3 were added into wells of a round-bottomed 96 well plate, and cultured under the condition of 5% CO2 at 37° C. for 2 days. 0.5 μCi/well of ^3 H-thymidine (^3 H-TdR) was added. After 6 hours, the cells were harvested, and the amount of ^3 H-TdR uptaken into nucleus was measured by a liquid scintillation counter. The ratio (%) of the uptake of ^3 H-TdR in the sample group to that in the vehicle group was calculated and used as the in vitro mouse splenic lymphocyte-proliferation-stimulating rate.

Assay [2] deals with P388 mouse leukemia cells. Nature of the assay: Life-span-prolonging (anti-tumor) effect on mice subcutaneously inoculated with P388 mouse leukemia cells. As to conditions: for Survival days ave. ± s. d.: all marked ** (p < 0.01); for response vs control in vivo at 0.1 mg/kg: Mus musculus, P388, iv, read-out: T/C (%). The format is in vivo, mouse (CDF1 female). The protocol:
i) Anti-tumor effect of the compound of the present invention on mice subcutaneously inoculated with P388 mouse leukemia cells.
Experiment was performed with CDF1 female mice (6 weeks) purchased from NIPPON SLC K.K., which were divided into groups consisting of 5 animals. […]. In this connection, lentinan and picibanil were administered intravenously on days 1, 3, 5, 7 and 9 after implantation, and sizofilan was administered subcutaneously on days 1 through 9. Statistical analysis was performed according to the Mann-Whiteney test.

The next assay relates to mouse bone marrow cells. Nature of the assay: In vitro mouse bone marrow cell-proliferation-promoting effect (3H-TdR uptake). Type of assay: cell-based, mouse (BDF1 female). As to conditions: 4 days; for activity at 0.1 µg/mL / activity at 0.01 µg/mL: Mus musculus, Bone marrow cell, 96 h, read-out: Uptake of 3H-TdR (% of control), bone marrow cells; for Uptake of 3H-TdR (% of control), bone marrow cells: 5760 min. The protocol: In vitro mouse bone marrow cell-proliferation-promoting effect of the present compound
Experiment was performed with BDF1 female mice (6 weeks old) purchased from NIPPON SLC K.K. Bone marrow cells were removed from the femoral bone of mice by the conventional manner, floated on 10% FCS RPMI 1640, layered over Lympholite M, and centrifuged to give a monocyte fraction. 1×10^6 cells/ml of the monocyte fraction was suspended in 10% FCS RPMI 1640. The cell suspension (100 μl/well) and a vehicle or sample (10 μl/well) which was prepared so as to have a final level shown in Table 2 were added into a wells of round-bottomed 96 well plate, and cultured under the condition of 5% CO2 at 37° C. for 4 days. 0.5 μCi/well of ^3 H-thymidine (^3 H-TdR) was added. After 6 hours, the cells were harvested, and the amount of ^3 H-TdR uptaken into nucleus was measured by a liquid scintillation counter. The ratio of the uptake of ^3 H-TdR in the sample group to that in the vehicle group was calculated and used as the activation rate for promoting in vitro mouse bone marrow cell growth.

A further assay concerns B16 mouse melanoma cells. Briefly: Tumor growth inhibition in mice subcutaneously inoculated with B16 mouse melanoma cells. As to conditions: 0.1 mg/kg i.v. days 1, 5, 9; maximum during 20 days. Type of assay: in vivo, mouse (BDF1 female). The procedure: ii) Anti-tumor effect of the compound according to the present invention on mice subcutaneously inoculated with B16 mouse melanoma cells.
Experiment was performed with BDF1 female mice (6 weeks) purchased from NIPPON SLC K.K., which were divided into groups consisting of 6 animals. […]. The subcutaneous tumor volumes [(length×width×height)/2] were measured on days 8, 12, 16 and 20 after implantation to determine the tumor growth inhibiting rate (TGIR) of each sample. TGIR was calculated from the following formula: […]
wherein C: tumor volume in the control group, and
T: tumor volume in the sample adminitered groups.
In this connection, Compounds 1-6 and 7-9 were tested in the same time, respectively.

Setting [3] is: 0.1 mg/kg i.v. on days 1, 5 and 9.
The mark [4] stands for this setting: 0.1 mg/kg i.v. on days 1, 5 and 9, survival vs vehicle.

Each structure is given as a SMILES string.

Turning to `CCCCCCCCCCCCCCCCCCCCCC[C@@H](O)C(=O)N[C@@H](CO[C@H]1O[C@H](CO)[C@H](O)[C@H](O[C@H]2O[C@H](CO)[C@H](O)[C@H](O)[C@H]2NC(C)=O)[C@H]1O[C@H]1O[C@H](CO)[C@@H](O)[C@H](O)[C@H]1O)[C@H](O)[C@H](O)CCCCCCCCCCCC` [Compound 1, O-(N-acetyl-2-amino-2-deoxy-α-D-galactopyranosyl)-(1→3)-O-[α-D-glucopyranosyl-(1→2)]-O-α-D-galactopyranosyl-(1→1)-(2S,3S,4R)-2-amino-N-[(R)-2-hydroxytetracosanoyl]-1,3,4-hexadecanetriol], the “Number of surviving mice” value in the assay on lethally irradiated mice (day 10) is 10 mice; in the assay on lethally irradiated mice (day 15), 9 mice; in the assay on lethally irradiated mice (day 20), 7 mice; in the assay with lethally irradiated mice (day 25), 6 mice; in the assay with lethally irradiated mice (day 30) it was 6 mice; in the assay on lethally irradiated mice (day 35) it was 6 mice. The “Number of surviving mice” value in the assay with lethally irradiated mice (day 40) came out at 6 mice. In addition, the activity at 1 µg/mL in assay [1] (1 × 10^0 μg/ml) came to 222%; in the assay on mouse splenic lymphocyte (10^0 μg/ml), 843%. Besides, the activity at 0.1 µg/mL in assay [1] (1 × 10^-1 μg/ml) was 142%; with mouse splenic lymphocyte, 738%; in the assay with mouse bone marrow cells (10^-1 μg/ml), 211%. The activity at 0.01 µg/mL in the assay with mouse splenic lymphocyte came out at 332%; with mouse bone marrow cells (10^-2 μg/ml) it was 133%. Also, the activity at 0.001 µg/mL in the assay with mouse splenic lymphocyte (10^-3 μg/ml) turned out to be 184%. For the same molecule, in assay [2] (setting [3]), the “Survival days ave. ± s. d.” value was 15.3 ± 0.8 days. In addition, in assay [2] (setting [4]), the response vs control in vivo at 0.1 mg/kg was determined as 120%.
For the molecule `CCCCCCCCCCCCCCCCCCCCCC[C@@H](O)C(=O)N[C@@H](CO[C@H]1O[C@H](CO)[C@H](O)[C@H](O[C@H]2O[C@H](CO)[C@H](O)[C@H](O)[C@H]2NC(C)=O)[C@H]1O[C@H]1O[C@H](CO)[C@@H](O)[C@H](O)[C@H]1O)[C@H](O)[C@H](O)CCCCCCCCCCCCCC` [Compound 8, O-(N-acetyl-2-amino-2-deoxy-α-D-galactopyranosyl)-(1→3)-O-[α-D-glucopyranosyl-(1→2)]-O-α-D-galactopyranosyl-(1→1)-(2S,3S,4R)-2-amino-N-[(R)-2-hydroxytetracosanoyl]-1,3,4-octadecanetriol], the figures for the “MLR activating rate (%)” value in assay [1] (1 × 10^0 μg/ml) and in assay [1] (1 × 10^-1 μg/ml) were 286% and 232%, respectively. Besides, the “Maximum tumor growth inhibiting rate, TGIR (%)” value in the assay on B16 mouse melanoma cells came to 78.4%. For the same molecule, the “Uptake of 3H-TdR (% of control), splenic lymphocytes” value in the assay on mouse splenic lymphocyte (10^0 μg/ml) is 997 % of control; in the assay on mouse splenic lymphocyte (10^-3 μg/ml), 609 % of control. Further, the “Survival days ave. ± s. d.” value in assay [2] (setting [3]) came out at 16.0 ± 0.7 days. In addition, the “T/C (%)” value in assay [2] (setting [4]) was 125%. The “Uptake of 3H-TdR (% of control), bone marrow cells” value is 240 % of control with mouse bone marrow cells (10^-1 μg/ml) and 167 % of control in the assay with mouse bone marrow cells (10^-2 μg/ml).
For the molecule `CCCCCCCCCCCCCCCCCCCCCC[C@@H](O)C(=O)N[C@@H](CO[C@H]1O[C@H](CO)[C@H](O)[C@H](O[C@@H]2O[C@@H]([C@H](O)CO)[C@H](O)[C@H]2O)[C@H]1O)[C@H](O)[C@H](O)CCCCCCCCCCCCC(C)C` [Compound 17, O-β-D-galactofuranosyl-(1→3)-O-α-D-galactopyranosyl-(1→1)-(2S,3S,4R)-2-amino-N-[(R)-2-hydroxytetracosanoyl]-17-methyl-1,3,4-octadecanetriol], the activity at 1 µg/mL in assay [1] (1 × 10^0 μg/ml) was 283%; with mouse splenic lymphocyte (10^0 μg/ml), 781%. The figures for the activity at 0.1 µg/mL (in assay [1] (1 × 10^-1 μg/ml); in the assay with mouse bone marrow cells (10^-1 μg/ml)) were 242% and 592%, respectively. Further, the activity at 0.001 µg/mL with mouse splenic lymphocyte (10^-3 μg/ml) amounted to 767%. In addition, the “Survival days ave. ± s. d.” value in assay [2] (setting [3]) stood at 14.8 ± 0.8 days. Besides, the response vs control in vivo at 0.1 mg/kg in assay [2] (setting [4]) turned out to be 116%.
As to `CCCCCCCCCCCCCCCCCCCCCCCCCC(=O)N[C@@H](CO[C@H]1O[C@H](CO)[C@@H](O[C@H]2O[C@H](CO)[C@@H](O)[C@H](O)[C@H]2O)[C@H](O)[C@H]1O)[C@H](O)[C@H](O)CCCCCCCCCCCCCC` [Compound 35, O-α-D-glucopyranosyl-(1→4)-O-α-D-glucopyranosyl-(1→1)-(2S,3S,4R)-2-amino-N-hexacosanoyl-1,3,4-octadecanetriol], the activity at 1 µg/mL in assay [1] (1 × 10^0 μg/ml) was 165%; in the assay with mouse splenic lymphocyte (10^0 μg/ml), 431%. Besides, the figures for the activity at 0.1 µg/mL (in assay [1] (1 × 10^-1 μg/ml); in the assay on mouse splenic lymphocyte; in the assay with mouse bone marrow cells (10^-1 μg/ml)) were 133%, 874% and 223%, respectively. Moreover, the activity at 0.01 µg/mL with mouse splenic lymphocyte was found to be 803%; in the assay with mouse bone marrow cells (10^-2 μg/ml), 148%. In addition, the activity at 0.001 µg/mL in the assay with mouse splenic lymphocyte (10^-3 μg/ml) came to 538%. Also, the “Survival days ave. ± s. d.” value in assay [2] (setting [3]) was 14.8 ± 1.3 days. For the same molecule, the response vs control in vivo at 0.1 mg/kg in assay [2] (setting [4]) was 116%. For the same molecule, the “life-span-prolonging effect (anti-tumor effect), in words” value in assay [2] (P388 s.c. system) is “intensive anti-tumor effects almost in the same level as that of Compound b”.
